For `CCCC(C(N)=O)n1nnc2ccccc21` (centres undefined), the logP came to 1.38.

As for `CCOC(=O)C(C)n1nc2ccccc2n1` (centres undefined), the logP was found to be 2.38.

`CC(C)(C(N)=O)n1nc2ccccc2n1` came in with a logP of 1.16.

Compound `c1ccc2nn(C3CCCCC3)nc2c1` had a logP of 3.63.

`CC(C)(C(N)=O)n1nnc2ccccc21` had a lipophilicity (logP) of 0.76.

For the compound `CCOC(=O)CC(C)n1nc2ccccc2n1` (centres undefined), the logP is 2.7.

In turn, `CC(CC(=O)O)n1nnc2ccccc21` (centres undefined) yielded a logP of -0.2.

In turn, `CCOC(=O)C(CC)n1nnc2ccccc21` (centres undefined) displayed a logP of 2.34.

In turn, `c1ccc2c(c1)nnn2C1CCCCC1` came in with a logP of 3.11.

Take `CCC(C(N)=O)n1nnc2ccccc21` (centres undefined): the logP worked out at 0.88.

`CCCCC(C(=O)OCC)n1nnc2ccccc21` (centres undefined) gave a logP of 3.32.

In the case of `CCOC(=O)C(CC)n1nc2ccccc2n1` (centres undefined), the logP came out at 2.88.

For the compound `c1ccc2nn(C3CCCC3)nc2c1`, the log partition coefficient (logP) came to 3.04.

Compound `CCCC(C(N)=O)n1nc2ccccc2n1` (centres undefined) showed a logP of 1.75.

For `CCCCC(C(=O)OCC)n1nc2ccccc2n1` (centres undefined), the logP was found to be 3.88.

Take `CCOC(=O)C(C)n1nnc2ccccc21` (centres undefined): the logP is 1.87.

Regarding `CC(C)(C(=O)O)n1nc2ccccc2n1`, the logP amounted to 0.64.

With `c1ccc2c(c1)nnn2C1CCCC1`, the logP amounted to 2.61.

Regarding `CCOC(=O)CC(C)n1nnc2ccccc21` (centres undefined), the logP was found to be 2.27.

As to `CCCC(C(=O)OCC)n1nnc2ccccc21` (centres undefined), the lipophilicity (logP) came to 2.82.

`CC(CCC(=O)O)n1nc2ccccc2n1` (centres undefined) yielded a lipophilicity (logP) of 0.69.

The compound `CC(CCC(=O)O)n1nnc2ccccc21` (centres undefined) registered a logP of 0.15.

In turn, `CCCCC(C(N)=O)n1nc2ccccc2n1` (centres undefined) had a logP of 2.28.

`CC(CCC(N)=O)n1nc2ccccc2n1` (centres undefined) came in with a logP of 1.35.

Compound `CCC(C(N)=O)n1nc2ccccc2n1` (centres undefined) came in with a logP of 1.25.

The compound `CC(C(N)=O)n1nc2ccccc2n1` (centres undefined) returned a lipophilicity (logP) of 0.86.

`CCCCC(C(N)=O)n1nnc2ccccc21` (centres undefined) displayed a logP of 1.88.

Turning to `CCCC(C(=O)OCC)n1nc2ccccc2n1` (centres undefined), the logP is 3.38.

`CC(C)(C(=O)O)n1nnc2ccccc21` returned a logP of -0.2.

One may read the logP as a log measure of how a compound divides between an organic and an aqueous phase. A higher logP goes with higher lipophilicity.

For the origin of these results see the OPERA property sets (Mansouri et al. 2018).
